The source of these data is patent US8927717B1, “Thiochromeno[2,3-c]quinolin-12-one derivatives, preparation method and application thereof” (National Defense Medical Center, priority 2014, dated 2015).

The structures appear in SMILES notation. Read-outs that look alike come from different tables or passages of the source.

The subject of one test is PC-3 cell line. The test is described as follows: MTT assay for cell cytotoxicity. Format: cell-based, human. The following applies: read-out: MTT assay (IC50 ± SD) PC-3. The procedure: (§1) All of synthesis compounds were evaluated cell cytotoxicity by using MTT colorimetric assay on PC-3 and DU-145 cell lines. DU-145 and PC-3 are human hormone-refractory (androgen-independent) prostatic cancer cell lines from American Type Culture Collection (HTB-81™, ATCC, Rockville, Md.)^125 and Bioresource Collection and Research Center (60122, BCRC, Taiwan)^126, respectively. Two of the “classical” cell lines were cultivated in RPMI-1640 medium supplemented with 5% fetal bovine serum (v/v), 100 U/mL penicillin, and […] streptomycin. Approximately 2×10^3 cells were seeded into each well of a 96-well plate and incubated in 5% CO2 at 37° C. for 24 h. To evaluate the in vitro cytotoxicity, all the synthetic compounds were dissolved in DMSO, prepared immediately before the experiments and diluted into the complete medium before being added to each well of a 96-well plate. Each compound was then added to the culture medium for designated various concentrations (0.15, 0.5, 1.5, 5, 15 μM). After 72 h, an amount of 100 μL of MTT (1 mg/mL) was added to each well, and the samples were incubated at 37° C. for 4 h. After removing the MTT solution, 100 μL of DMSO was added to each well and incubated at 37° C. for another 20 mins. The absorbency at 560 nm was measured by using an ELISA reader.
(§2) Results are expressed as mean values of at least three independent experiments. The IC50 values of testing compounds were described in Table 1.

The test system of a further test is DU-145 cell line. Briefly: MTT assay for cell cytotoxicity. Format: cell-based, human. The note with it: read-out: MTT assay (IC50 ± SD) DU-145. The procedure: as §1, §2
For orientation: Tetrazolium assays rely on reduction of a dye to a coloured formazan, in cell work by metabolically active cells.

The IC50 is the concentration that gives 50% inhibition. For `O=c1c2cc(Cl)ccc2sc2c(NCCO)nc3ccccc3c12` [Compound N9, 10-Chloro-6-(2-ethanolamino)-12H-thiochromeno[2,3-c]quinolin-12-one], the half-maximal inhibitory concentration (IC50) came to 7.48 ± 3.35 µM with PC-3 cell line (PC-3 cells, 72 h, at least three independent experiments) and 11.6 ± 7.23 µM with DU-145 cell line (DU-145 cells, 72 h, at least three independent experiments).

As to `CC(C)CC(C)Nc1nc2ccccc2c2c(=O)c3cc(Cl)ccc3sc12` (stereo not shown) [Compound N13, 10-Chloro-6-((4-methylpentan-2-yl)amino)-12H-thiochromeno[2,3-c]quinolin-12-one], the IC50 in the test with PC-3 cell line (Homo sapiens, PC-3, 72 h) is 10.4 ± 2.3 µM; in the test with DU-145 cell line (Homo sapiens, DU-145, 72 h) it was 14.2 ± 1.18 µM.
